Measured values as given in PMC8092108, “Mycophenolate suppresses inflammation by inhibiting prostaglandin synthases: a study of molecular and experimental drug repurposing” (PeerJ, 2021).
Several values for one entry are separate records, joined by “and”; a condition that tells them apart may be missing. Equal entries are not always repeated.

What was measured:
COX-1 = target: T1, COX-1 (Ovis aries, UniProt P05979); assay: COX inhibitor screening assay, COX-1; assay type: biochemical
T1 construct: purchased
T1 sequence (P05979 25-600): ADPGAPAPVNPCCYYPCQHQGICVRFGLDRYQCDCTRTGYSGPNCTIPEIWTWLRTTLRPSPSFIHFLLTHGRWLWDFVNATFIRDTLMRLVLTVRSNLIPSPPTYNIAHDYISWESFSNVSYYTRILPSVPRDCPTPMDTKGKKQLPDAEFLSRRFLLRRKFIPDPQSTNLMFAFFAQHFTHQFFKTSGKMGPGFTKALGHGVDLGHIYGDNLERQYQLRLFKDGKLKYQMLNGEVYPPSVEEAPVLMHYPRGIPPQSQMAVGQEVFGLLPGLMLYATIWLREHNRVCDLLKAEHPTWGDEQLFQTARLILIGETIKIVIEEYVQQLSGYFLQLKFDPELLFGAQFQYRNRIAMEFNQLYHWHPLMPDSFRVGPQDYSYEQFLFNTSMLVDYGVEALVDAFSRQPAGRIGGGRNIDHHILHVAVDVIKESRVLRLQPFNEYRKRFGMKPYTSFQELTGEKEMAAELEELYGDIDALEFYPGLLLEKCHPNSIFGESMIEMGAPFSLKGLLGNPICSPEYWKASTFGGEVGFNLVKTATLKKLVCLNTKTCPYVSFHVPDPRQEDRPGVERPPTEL
Description: The inhibitory effects of the drugs MMF and MPA on COX-1 and COX-2 were measured using the COX inhibitor screening assay kit and LOX inhibitor screening kit. […] Briefly, the reaction buffer (Tris–HCl buffer, pH 8.0) containing 5 mM EDTA, 2 mM phenol, and 1 µM hematin was measured into test tubes. The test drugs were dissolved in dimethyl sulfoxide and added to the tubes to final concentrations of […]. COX-1 or COX-2 was added to the test tubes and preincubated for 10 min at 37 °C. Arachidonic acid was then added, and the tubes were incubated for 2 min at 37 °C. The enzyme immunoassay was used to measure the concentration of the product prostaglandin F2α (PGF2α). The estimated values were determined after comparison to the predetermined standard curve. The IC50 was determined after three different experiments. The selectivity index was calculated from Eq. (1):
(1) Selectivity index=IC50COX−1/IC50COX−2

[1] = test system: atopic dermatitis and vitiligo; conditions: cited from earlier work
[2] = test system: carrageenan-induced paw edema; assay: Carrageenan-induced rat paw edema test; assay type: in vivo; set-up: key to Tukey's test Summary: Significant (s); non-significant (ns); conditions: for Tukey's test Significant? / Tukey's test Summary: mean paw size 3–5 h; for Rat paw size: individual rats 1-7
Description: The in vivo assay was performed by the rat paw edema inhibition test as previously described ([Morris, 2003]; [Winter, Risley & Nuss, 1962]). Forty-nine male adult albino rats weighing […] were obtained from the Animal Breeding Center at the College of Veterinary Medicine, King Faisal University, and were randomly divided into seven groups (n = 7/group). The animal groups included the nontreated control group, carrageenan group, and five groups receiving carrageenan and treated with either indomethacin, celecoxib, or MMF at three doses (12.5, 25, and 50 mg/kg). All rats were allowed free access to food and water. All cages were kept in controlled rooms at 25 °C and exposed to a 12-h light/dark cycle. MMF and two reference drugs, indomethacin and celecoxib, were suspended in 1% NaCMC in normal saline. A 1% carrageenan solution in normal saline was injected into the subplantar area of the right hind paw of rats. One hour before injection of carrageenan, rats were given either indomethacin or celecoxib at a dose rate of 10 mg/kg or MMF at three dose levels of 12.5, 25, and 50 mg/kg by oral administration. […] The measurements were blind to avoid measurement bias. The King Faisal University Ethics Committee (approval no. KFU-REC/2020-10-11) approved all animal experiments. Since no samples were taken from rats, there were no anesthesia procedures. The size of the hind paw was only measured in non-anesthetized rats. At the end of the experiment, all rats were euthanized according to the regulations of the King Faisal University Ethics Committee by an overdose of pentobarbital (200 mg/kg IP) and decapitation. The effect of MMF at different doses on relieving rat paw edema was compared with the control and standard NSAID-treated groups. Significant differences were determined by one-way analysis of variance (ANOVA) with Tukey’s post hoc test. All steps were implemented using GraphPad prism software (GraphPad Software, La Jolla, CA, USA).

[3] = cited from earlier work
[4] = Indomethacin vs. MMF 12.5 mg/kg

Question: For `COc1c(C)c2c(c(O)c1C/C=C(\C)CCC(=O)OCCN1CCOCC1)C(=O)OC2` [Mycophenolate mofetil], which IC50 (COX-1) is on record?
Answer: 5.53 µM

Question: And the “Treatment of atopic dermatitis” value ([1]; oral 1–2 g daily for 12 weeks, ref Grundmann-Kollmann et al., 2001, Neuber et al., 2000)?
Answer: highly effective

Question: What about the “Tolerability of high topical concentration” value ([1]; topical 15% MMF, ref Handjani et al., 2017) of the same molecule?
Answer: well tolerated

Question: And the Treatment of vitiligo ([1]; topical application of 15% MMF, ref Handjani et al., 2017)?
Answer: highly effective

Question: What about the “Rat paw size at 3, 4 and 5 h after treatment” value ([2]; 12.5, 25, 50 mg/kg MMF) of the same molecule?
Answer: dose-dependent decrease in edema

Question: And the “Rat paw edema 2–5 h after drug administration” value ([2]; 12.5, 25 and 50 mg/kg MMF oral)?
Answer: significant decrease

Question: What about the “Tukey's test Significant?” value ([2]; Carrageenan vs. MMF 12.5 mg/kg) of the same molecule?
Answer: Yes

Question: And the “Tukey's test Summary” value ([2]; Carrageenan vs. MMF 12.5 mg/kg)?
Answer: s

Question: What about the “Tukey's test Significant?” value ([2]; Carrageenan vs. MMF 25 mg/kg) of the same molecule?
Answer: Yes

Question: And the “Tukey's test Summary” value ([2]; Carrageenan vs. MMF 25 mg/kg)?
Answer: s

Question: What about the “Tukey's test Significant?” value ([2]; Carrageenan vs. MMF 50 mg/kg) of the same molecule?
Answer: Yes

Question: What about the “Tukey's test Summary” value ([2]; Carrageenan vs. MMF 50 mg/kg) of the same molecule?
Answer: s

Question: What about the “Tukey's test Significant?” value ([2]; Celecoxib vs. MMF 12.5 mg/kg) of the same molecule?
Answer: No

Question: What about the “Tukey's test Summary” value ([2]; Celecoxib vs. MMF 12.5 mg/kg) of the same molecule?
Answer: ns

Question: And the “Tukey's test Significant?” value ([2]; Celecoxib vs. MMF 25 mg/kg)?
Answer: No

Question: What about the “Tukey's test Summary” value ([2]; Celecoxib vs. MMF 25 mg/kg) of the same molecule?
Answer: ns

Question: And the “Tukey's test Significant?” value ([2]; Celecoxib vs. MMF 50 mg/kg)?
Answer: No

Question: What about the “Tukey's test Summary” value ([2]; Celecoxib vs. MMF 50 mg/kg) of the same molecule?
Answer: ns

Question: And the “Tukey's test Significant?” value [2, 4]?
Answer: No

Question: What about the “Tukey's test Summary” value [2, 4] of the same molecule?
Answer: ns

Question: And the “Tukey's test Significant?” value ([2]; Indomethacin vs. MMF 25 mg/kg)?
Answer: No

Question: And the “Tukey's test Summary” value ([2]; Indomethacin vs. MMF 25 mg/kg)?
Answer: ns

Question: And the Rat paw size ([2]; MMF 12.5 mg Kg oral, Time (h) 1)?
Answer: 0.75 cm (3×) and 0.73 cm (3×) and 0.7 cm

Question: What about the Rat paw size ([2]; MMF 12.5 mg Kg oral, Time (h) 2) of the same molecule?
Answer: 0.75 cm (3×) and 0.76 cm (3×) and 0.8 cm

Question: What about the Rat paw size ([2]; MMF 12.5 mg Kg oral, Time (h) 3) of the same molecule?
Answer: 0.75 cm and 0.8 cm

Question: What about the Rat paw size ([2]; MMF 25 mg/Kg oral, Time (h) 1) of the same molecule?
Answer: 0.74 cm (2×) and 0.75 cm (4×) and 0.77 cm

Question: What about the Rat paw size ([2]; MMF 25 mg/Kg oral, Time (h) 2) of the same molecule?
Answer: 0.7 cm (3×) and 0.65 cm and 0.71 cm and 0.75 cm and 0.69 cm

Question: And the Rat paw size ([2]; MMF 25 mg/Kg oral, Time (h) 3)?
Answer: 0.59 cm and 0.6 cm and 0.55 cm (2×) and 0.5 cm and 0.65 cm and 0.57 cm

Question: What about the Rat paw size ([2]; MMF 25 mg/Kg oral, Time (h) 4) of the same molecule?
Answer: 0.46 cm and 0.5 cm (2×) and 0.45 cm (2×) and 0.47 cm and 0.48 cm

Question: And the Rat paw size ([2]; MMF 25 mg/Kg oral, Time (h) 5)?
Answer: 0.45 cm (5×) and 0.5 cm and 0.4 cm

Question: What about the Rat paw size ([2]; MMF 25 mg/Kg oral, Time (h) 6) of the same molecule?
Answer: 0.57 cm and 0.6 cm (2×) and 0.5 cm and 0.65 cm and 0.55 cm and 0.54 cm

Question: What about the Rat paw size ([2]; MMF 50mg/kg oral, Time (h) 1) of the same molecule?
Answer: 0.75 cm

Question: And the Rat paw size ([2]; MMF 50mg/kg oral, Time (h) 2)?
Answer: 0.75 cm and 0.7 cm (3×) and 0.65 cm and 0.66 cm and 0.68 cm

Question: What about the Rat paw size ([2]; MMF 50mg/kg oral, Time (h) 3) of the same molecule?
Answer: 0.65 cm (2×) and 0.6 cm (2×) and 0.55 cm and 0.62 cm and 0.58 cm

Question: And the Rat paw size ([2]; MMF 50mg/kg oral, Time (h) 4)?
Answer: 0.55 cm (2×) and 0.5 cm (2×) and 0.52 cm and 0.53 cm and 0.51 cm

Question: And the Rat paw size ([2]; MMF 50mg/kg oral, Time (h) 5)?
Answer: 0.45 cm (3×) and 0.5 cm and 0.46 cm (3×)

Question: What about the Rat paw size ([2]; MMF 50mg/kg oral, Time (h) 6) of the same molecule?
Answer: 0.6 cm (3×) and 0.5 cm and 0.65 cm and 0.56 cm and 0.58 cm

Question: And the “Rat paw edema after treatment” value ([2]; MMF 12.5–50 mg/kg, indomethacin or celecoxib 10 mg/kg oral)?
Answer: significantly relieved

Question: And the “Most effective dose in the rat paw edema test” value ([2]; oral)?
Answer: 50 mg/kg

Question: And the “Maximal serum concentration (Cmax)” value ([3]; after 1–2 g oral doses, ref Ferreira et al., 2020)?
Answer: 18000 to 20000 ng/mL

Question: What about the “Conversion to MPA by liver carboxylesterases 1 and 2” value ([3]; after oral intake, ref Lamba et al., 2014) of the same molecule?
Answer: completely converted to MPA
